Source: patent US20140350014A1, “COMPOUNDS FOR INHIBITING THE INTERACTION OF BCL2 WITH BINDING PARTNERS” (NOVARTIS AG, priority 2011, published 2014)
pIC50: −log10 of the molar value.

Assays:
[1] = target: BCL-2 binding to BAD peptide (Homo sapiens, UniProt P10415); assay: BCL2 SPR solution inhibition assay, BAD peptide surface (Biacore A100); conditions: read-out: BCL2_SPR IC50 BAD
Text: (§1) 33The present method includes utility of a Surface plasmon resonance (SPR)-based biosensor (Bia34core™′ GE Healthcare, Uppsala, Sweden) to characterize BCL-2 inhibitors. 35
(§2) 36Biacore™ utilizes the phenomenon of surface plasmon resonance (SPR) to detect and measure 37binding interactions. In a typical Biacore experiment, one of the interacting molecules (ligand) is i38mmobilized on a flexible dextran matrix while the interacting partner (analyte) is allowed to fl39ow across that surface. A binding interaction results in an increase in mass on the sensor surface 40and a corresponding direct change in the refractive index of the medium in the vicinity of the 41sensor surface. Changes in refractive index or signal are recorded in resonance units (R.U.) Signal 42changes due to association and dissociation of complexes are monitored in a non-invasive manne43r, continuously and in real-time, the results of which are reported in the form of a sensorgram.44
(§3) The SPR assay is con45figured to examine solution inhibition of BCL-2 binding to peptide derivatized sensor surfa46ces to generate IC50 values as a measure of inhibitor potency.
(§4) Biacore™ A100 (GE Healthcare, Uppsala, Sweden) was used to conduct all experiments reported herein. Sensor surface preparation and all interaction analyses experiments were performed at 25° C. Reagents were purchased from GE Healthcare. Running buffer containing 10 mM Hepes, pH7.4, 150 mM sodium chloride, 1.25 mM Dithiothreitol, 3% Dimethyl sulfoxide and 0.05% polysorbate 20 were utilized throughout all analyses.
(§5) Biotinylated BAK, BAD and NOXA peptides were diluted to 10 nM in running buffer and captured onto a sensor surface pre-derivatized with streptavidin (sensor chip SA) to peptide surface densities in the range 50-100 R.U. Peptide captured surfaces were blocked with 500 μM PEO2-Biotin.
(§6) Interaction analyses were performed by first equilibrating each sample within a 6 point three fold compound dilution series in the range 16 μM to […] with 56 nM BCL-2 for one hour during instrument start-up procedures. Protein compound mixtures were then injected over each peptide surface in parallel for 60 seconds at a flow-rate of 30 μL/min. 56 nM BCL-2 control samples were also prepared and run at regular intervals during the assay. Surface regeneration was performed at the end of each analysis cycle by two 30 second injections of 10 mM Glycine, pH 2.5, 1M Sodium Chloride, 0.05% polysorbate 20. Samples and control compound samples were run in duplicate and controls are also run at regular intervals during the assay to monitor surface and assay performance.
(§7) Data analyses are carried out using Biacore™ A100 evaluation software v1.1 to validate assay quality. Binding level report points were used relative to BCL-2 control samples to calculate % inhibition values for each compound protein mixture. […] The range of data shown in table 1 represents the high and low IC50 values obtained from multiple experiments.

[2] = target: BCL-2 binding to BAK peptide (Homo sapiens, UniProt P10415); assay: BCL2 SPR solution inhibition assay, BAK peptide surface (Biacore A100); conditions: read-out: BCL2_SPR IC50 BAK
Text: as §1, §2, §3, §4, §5, §6, §7

BCL-2 binding to BAK peptide, sequence (P10415 whole entry): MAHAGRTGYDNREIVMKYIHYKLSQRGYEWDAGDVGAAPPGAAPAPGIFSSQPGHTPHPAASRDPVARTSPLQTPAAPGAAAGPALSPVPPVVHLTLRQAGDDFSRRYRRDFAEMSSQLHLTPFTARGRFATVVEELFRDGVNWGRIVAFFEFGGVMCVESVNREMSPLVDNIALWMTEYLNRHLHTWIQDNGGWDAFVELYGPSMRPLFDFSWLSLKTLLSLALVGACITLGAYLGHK
BCL-2 binding to BAD peptide, sequence (P10415 whole entry): as above

| Compound | pIC50 [1] | pIC50 [2] |
| --- | --- | --- |
| CCCCN(CCCC)C(=O)c1nn(-c2ccc(-c3cnn(Cc4ccccc4)c3)cc2C(=O)N2Cc3ccccc3C[C@H]2CO)c(C)c1Cl [Example 12] | 6.83 to 6.89 | 6.94 to 6.99 |
| CCCCN(CCCC)C(=O)c1cc(C)n(-c2ccc(N3CCN(c4ccccc4)CC3=O)cc2C(=O)N2Cc3ccccc3C[C@H]2CO)n1 [Example 2, (S)—N,N-dibutyl-1-(2-(3-(hydroxymethyl)-1,2,3,4-tetrahydroisoquinoline-2-carbonyl)-4-(2-oxo-4-phenylpiperazin-1-yl)phenyl)-5-methyl-1H-pyrazole-3-carboxamide] | 5.34 to 5.36 | 5.48 to 5.50 |
| CCCCN(CCCC)C(=O)c1cc(C)n(-c2ccc(-c3ccc4ccccc4c3)cc2C(=O)N2Cc3ccccc3C[C@H]2CO)n1 [Example 67] | 6.07 to 6.08 | 6.09 to 6.11 |
| CCCCN(CCCC)C(=O)c1cc(C)n(-c2ccc(N3CCCCC3)cc2C(=O)N2Cc3ccccc3C[C@H]2CO)n1 [Example 18] | 5.56 to 5.63 | 5.71 to 5.78 |
| CCCCN(CCCC)C(=O)c1cc(C)n(-c2ccc(-c3cnc4ccccc4c3)cc2C(=O)N2Cc3ccccc3C[C@H]2CO)n1 [Example 31] | 6.75 | 6.85 |
| CCCCN(CCCC)C(=O)c1cc(C)n(-c2ccc(-c3ccc(F)c(C)c3)cc2C(=O)N2Cc3ccccc3C[C@H]2CO)n1 [Example 28] | 5.97 to 6.04 | 6.04 to 6.10 |
| CCCCN(CCCC)C(=O)c1cc(C)n(-c2ccc(-c3cccc(F)c3Cl)cc2C(=O)N2Cc3ccccc3C[C@H]2CO)n1 [Example 42] | 4.99 to 5.15 | 5.14 to 5.20 |
| CCCCN(CCCC)C(=O)c1cc(C)n(-c2ccc(-c3ccc(OC)c(C)c3)cc2C(=O)N2Cc3ccccc3C[C@H]2CO)n1 [Example 29] | 6.09 to 6.11 | 6.21 to 6.25 |
| CCCCN(CCCC)C(=O)c1cc(C)n(-c2ccc(-c3ccc(N(C)C)cc3)cc2C(=O)N2Cc3ccccc3C[C@H]2CO)n1 [Example 68] | 5.92 to 5.94 | 5.96 to 5.98 |
| CCCCN(CCCC)C(=O)c1cc(C)n(-c2ccc(-c3ccc4cc(OC)ccc4c3)cc2C(=O)N2Cc3ccccc3C[C@H]2CO)n1 [Example 57] | 6.19 to 6.22 | 6.16 to 6.25 |
| CCCCN(CCCC)C(=O)c1cc(C)n(-c2ccc(-c3cc(F)cc(OC(C)C)c3)cc2C(=O)N2Cc3ccccc3C[C@H]2CO)n1 [Example 59] | 6.19 to 6.20 | 6.23 to 6.27 |
| CCCCN(CCCC)C(=O)c1cc(C)n(-c2ccc(N3CCN(Cc4ccccc4)CC3)cc2C(=O)N2Cc3ccccc3C[C@H]2CO)n1 [Example 22] | 6.64 to 6.70 | 6.57 to 6.66 |
| CCCCN(CCCC)C(=O)c1cc(C)n(-c2ccc(-c3ccc(OCC)nc3)cc2C(=O)N2Cc3ccccc3C[C@H]2CO)n1 [Example 51] | 6.05 to 6.07 | 6.13 to 6.18 |
| CCCCN(CCCC)C(=O)c1cc(C)n(-c2ccc(-c3c(OC)cccc3OC)cc2C(=O)N2Cc3ccccc3C[C@H]2CO)n1 [Example 65] | 4.91 to 4.98 | 5.16 to 5.20 |
| CCCCN(CCCC)C(=O)c1cc(C)n(-c2ccc(-c3cc(Cl)ccc3OC)cc2C(=O)N2Cc3ccccc3C[C@H]2CO)n1 [Example 54] | 6.02 to 6.03 | 6.07 to 6.10 |
| CCCCN(CCCC)C(=O)c1cc(C)n(-c2ccc(-c3ccc(C(=O)NCC)c(F)c3)cc2C(=O)N2Cc3ccccc3C[C@H]2CO)n1 [Example 37] | 6.50 to 6.51 | 6.62 |
| CCCCN(CCCC)C(=O)c1nn(-c2ccc(-c3ccncc3OC)cc2C(=O)N2Cc3ccccc3C[C@H]2CO)c(C)c1Cl [Example 9] | 6.04 to 6.11 | 6.04 to 6.15 |
| CCCCN(CCCC)C(=O)c1nn(-c2ccc(-c3cn[nH]c3)cc2C(=O)N2Cc3ccccc3C[C@H]2CO)c(C)c1Cl [Example 14] | 6.50 to 6.56 | 6.67 to 6.72 |
| CCCCN(CCCC)C(=O)c1cc(C)n(-c2ccc(-c3cccc(Cl)c3)cc2C(=O)N2Cc3ccccc3C[C@H]2CO)n1 [Example 27] | 6.11 to 6.13 | 6.22 to 6.28 |
| CCCCN(CCCC)C(=O)c1cc(C)n(-c2ccc(-c3c(-c4ccccc4)noc3C)cc2C(=O)N2Cc3ccccc3C[C@H]2CO)n1 [Example 69] | 5.26 | 5.34 to 5.35 |

| Compound | pIC50 [1] | pIC50 [2] |
| --- | --- | --- |
| CCCCN(CCCC)C(=O)c1cc(C)n(-c2ccc(-c3cccc(-c4nnc(C)o4)c3)cc2C(=O)N2Cc3ccccc3C[C@H]2CO)n1 [Example 62] | 6.26 to 6.27 | 6.10 to 6.12 |
| CCCCN(CCCC)C(=O)c1cc(C)n(-c2ccc(-c3cccc(C(=O)O)c3)cc2C(=O)N2Cc3ccccc3C[C@H]2CO)n1 [Example 4, (S)-4′-(3-(dibutylcarbamoyl)-5-methyl-1H-pyrazol-1-yl)-3′-(3-(hydroxymethyl)-1,2,3,4-tetrahydroisoquinoline-2-carbonyl)-[1,1′-biphenyl]-3-carboxylic acid] | 6.92 to 6.96 | 7.04 to 7.06 |
| CCCCN(CCCC)C(=O)c1cc(C)n(-c2ccc(-c3ccc(OC(C)C)cc3)cc2C(=O)N2Cc3ccccc3C[C@H]2CO)n1 [Example 55] | 6.12 to 6.14 | 6.21 to 6.25 |
| CCCCN(CCCC)C(=O)c1cc(C)n(-c2ccc(-c3ccc(C(=O)N4CCCC4)c(F)c3)cc2C(=O)N2Cc3ccccc3C[C@H]2CO)n1 [Example 25] | 6.65 | 6.77 to 6.80 |
| CCCCN(CCCC)C(=O)c1cc(C)n(-c2ccc(-c3ccc(S(C)(=O)=O)cc3)cc2C(=O)N2Cc3ccccc3C[C@H]2CO)n1 [Example 60] | 6.21 to 6.22 | 6.34 to 6.36 |
| CCCCN(CCCC)C(=O)c1cc(C)n(-c2ccc(-c3cccc(C)c3)cc2C(=O)N2Cc3ccccc3C[C@H]2CO)n1 [Example 47] | 6.20 to 6.21 | 6.23 to 6.30 |
| CCCCN(CCCC)C(=O)c1cc(C)n(-c2ccc(-c3cccc4cnccc34)cc2C(=O)N2Cc3ccccc3C[C@H]2CO)n1 [Example 53] | 6.00 to 6.09 | 6.11 to 6.22 |
| CCCCN(CCCC)C(=O)c1cc(C)n(-c2ccc(-c3ccc(F)c(F)c3)cc2C(=O)N2Cc3ccccc3C[C@H]2CO)n1 [Example 44] | 5.66 to 5.68 | 5.53 to 5.60 |
| CCCCN(CCCC)C(=O)c1cc(C)n(-c2ccc(N3CCN(Cc4ccccc4Cl)C(=O)C3)cc2C(=O)N2Cc3ccccc3C[C@H]2CO)n1 [Example 21] | 6.70 to 6.75 | 6.72 to 6.75 |
| CCCCN(CCCC)C(=O)c1cc(C)n(-c2ccc(N3CCOCC3=O)cc2C(=O)N2Cc3ccccc3C[C@H]2CO)n1 [Example 19] | 4.91 to 4.95 | 5.18 to 5.22 |
| CCCCN(CCCC)C(=O)c1cc(C)n(-c2ccc(-c3cccc(OC(F)(F)F)c3)cc2C(=O)N2Cc3ccccc3C[C@H]2CO)n1 [Example 36] | 6.07 to 6.08 | 6.12 to 6.13 |
| CCCCN(CCCC)C(=O)c1cc(C)n(-c2ccc(-c3ccc(OC)c4ccccc34)cc2C(=O)N2Cc3ccccc3C[C@H]2CO)n1 [Example 46] | < 4.80 | < 4.80 |
| CCCCN(CCCC)C(=O)c1cc(C)n(-c2ccc(N3CCN(C(=O)OC(C)(C)C)CC3=O)cc2C(=O)N2Cc3ccccc3C[C@H]2CO)n1 [Example 16] | 5.66 to 5.70 | 5.84 to 5.87 |
| CCCCN(CCCC)C(=O)c1cc(C)n(-c2ccc(N3CCOCC3)cc2C(=O)N2Cc3ccccc3C[C@H]2CO)n1 [Example 1, (S)—N,N-dibutyl-1-(2-(3-(hydroxymethyl)-1,2,3,4-tetrahydroisoquinoline-2-carbonyl)-4-morpholinophenyl)-5-methyl-1H-pyrazole-3-carboxamide] | 5.82 to 5.85 | 6.07 to 6.14 |
| CCCCN(CCCC)C(=O)c1cc(C)n(-c2ccc(-c3ccc(F)cc3Cl)cc2C(=O)N2Cc3ccccc3C[C@H]2CO)n1 [Example 64] | 5.32 to 5.35 | 5.40 to 5.47 |
| CCCCN(CCCC)C(=O)c1nn(-c2ccc(-c3ccc(OC)nc3)cc2C(=O)N2Cc3ccccc3C[C@H]2CO)c(C)c1Cl [Example 10] | 6.02 to 6.07 | 6.04 to 6.10 |
| CCCCN(CCCC)C(=O)c1cc(C)n(-c2ccc(-c3cc(C)cc(F)c3)cc2C(=O)N2Cc3ccccc3C[C@H]2CO)n1 [Example 66] | 5.98 to 6.00 | 6.01 to 6.03 |
| CCCCN(CCCC)C(=O)c1cc(C)n(-c2ccc(N3CCN(Cc4cccc(Cl)c4)C(=O)C3)cc2C(=O)N2Cc3ccccc3C[C@H]2CO)n1 [Example 23] | 6.79 | 6.81 to 6.83 |
| CCCCN(CCCC)C(=O)c1cc(C)n(-c2ccc(-c3ccc(C(=O)O)cc3)cc2C(=O)N2Cc3ccccc3C[C@H]2CO)n1 [Example 13] | 6.78 to 6.87 | 6.89 to 6.98 |
| CCCCN(CCCC)C(=O)c1cc(C)n(-c2ccc(-c3cc(C)cc(C)c3)cc2C(=O)N2Cc3ccccc3C[C@H]2CO)n1 [Example 43] | 6.21 to 6.23 | 6.04 to 6.05 |
